Positions of bridges follow the written chain, without caps; N, C: chain ends. Residues, ends and D or L forms follow the SMILES beside them. *: point of attachment. 5FAM = O=C1OC2(c3ccc(O)cc3Oc3cc(O)ccc32)c2ccc(C(=O)*)cc21
Assays:
HUVEC [1] = assay: Uptake in human HUVEC; assay type: functional, cell-based
BT-20 [2] = assay: Level of peptide binding to human BT20 cells indicating presence of integrin alphaVbeta3; assay type: functional
BT-20 [3] = assay: Antiadhesive activity against human BT20 cells; assay type: functional, cell-based
9L = assay: Level of peptide binding to rat 9L cells indicating presence of integrin alphaVbeta3; assay type: functional
BT-20 [4] = assay: Uptake in human BT20 cells; assay type: functional, cell-based
HUVEC [5] = assay: Antiadhesive activity against human HUVEC; assay type: functional, cell-based

## NCC(=O)N[C@@H](CO)C(=O)N[C@@H](CO)C(=O)N[C@@H](CCCCNC(=O)c1ccc2c(c1)C(=O)OC21c2ccc(O)cc2Oc2cc(O)ccc21)C(=O)NCC(=O)NCC(=O)NCC(=O)N[C@H]1CSSC[C@@H](C(=O)O)NC(=O)[C@H](CC(=O)O)NC(=O)CNC(=O)[C@H](CCCN=C(N)N)NC1=O (H-GSSK(5FAM)GGGCRGDC-OH; disulfide 8-12)
HUVEC [1]
  EC50: 6 µM
BT-20 [2]
  Activity: 0.82 pmol
BT-20 [3]
  IC50: 130 µM
9L
  Activity: 0.16 pmol
BT-20 [4]
  EC50: 1.2 µM
HUVEC [5]
  IC50: 0.76 µM
